{
  "source": "patent US11690895B2",
  "about": "“Compositions and methods of interferon alpha binding proteins” (priority 2017, dated 2023)",
  "key": {"rat neurons": {"test_system": "rat neurons", "test": "PSD-95 puncta on rat neurons exposed to IFNα", "assay_type": "cell-based", "details": "IFNα 300 IU/mL, compared to control neurons", "protocol": "(§1) Rat neurons were either obtained from Brain Bits (Cat #SDECX; embryonic day 18) and cultured in NBACTIV1 media (Cat #nbactivl) until day 14, when they are relatively “mature”, or cortical neurons were prepared from embryonic day 18 Sprague Dawley fetuses. Two different densities of neurons were utilized, based on test procedures. For PSD-95 puncta, low density cultures (10,000 neurons/cm') were placed on 12 mm poly D Lysine (Sigma cat #2636) coated coverslips, incubated in wells with glia (astrocytes) or removed for IFNα (300 IU/ml) exposure. High density cultures (500,000 neurons/60 mm dish) were used for protein extraction. These cultures contained approximately 2-3% glia (GFAP immunostaining).\nRat neurons were seeded on poly-L-lysine coated coverslips and co-cultured with astroglia. On day 14, half of the conditioned medium from co-culture was transferred to new 6 well plates. […] PSD-95 puncta were identified and counted with SYNPANAL software. […] PSD-95 puncta along the region were counted and divided by the length to obtain PSD-95 puncta/unit. […] For each treatment, the average puncta/unit was determined by averaging the puncta/unit for each neuron (at least 10/treatment in each replicate plate). For each treatment within the experiment, the average puncta/unit is determined by averaging the puncta/unit for each replicate of that treatment (thus, n=3/treatment) for 20 min and 2 hours. […]"}, "AMPA receptor (AMPAR)": {"test_system": "AMPA receptor (AMPAR)", "test": "AMPA receptor (GLuR2) immunofluorescent staining of rat neurons", "assay_type": "cell-based", "details": "IFNα exposure for 2 hours", "protocol": "Rat neurons were fixed with 4% paraformaldehyde in PBS for 20 min at RT. They were incubated with anti-GLuR2 (EMD Millipore, Burlington Mass.; 1:100), a subunit of the AMPA receptor (AMPAR), for 1 hour at RTO in the dark. After washes, this was followed by incubation with DAPI […] (Images were subjected ImageJ software for densitometric analysis)."}, "rat neuronal cultures": {"test_system": "rat neuronal cultures", "details": "mediated through IFNAR and NMDAR, earlier studies; cited from earlier work"}, "Arf1": {"test_system": "Arf1", "test": "Arf1 expression in rat neuronal cultures (proteomics, Western blot)", "assay_type": "cell-based", "details": "IFNα 300 IU/ml", "protocol": "as §1\nProtein samples (5 to 10 micrograms) were resolved in Criterion precast gels (Bio-Rad) and transferred to a PVDF membrane using a semidry system (Bio-Rad). All blocking antibody and washing steps were performed at room temperature (RT) on a rocker. Membranes were incubated for one hour in 3% non-fat dry milk in TBST (25 mM Tris, 140 mM NaCl, 3 mM KCl, and 0.05% Tween-20), then 4 hr in anti-Arfl antibody (cat #ARP75924_P050, Aviva; 1:1000) diluted in 1% non-fat dry milk in TBST. Membranes were briefly washed in TBST followed by 3 separate 5 minute incubations in TBST. Membranes were incubated for one hour with goat anti-rabbit IgG HRP (cat #NEF812001EA, Perkin Elmer 1:5,000) diluted in 1% non-fat dry milk in TBST. Final washing included a quick rinse with ddH2O, 2 min wash in TBST, 4 min wash in TBST, and 5 min wash in 1× TBS. Immunoreactive bands were detected with chemiluminescence using ECL Prime substrate (cat #RPN2236, GE Healthcare Life Sciences) on a Chemidoc imager (Bio-Rad), and quantified with ImageJ (NIH). Arf1 signal was normalized to GAPDH Western blot (WB) intensity (cat #MAB374, Millipore;1:20,000).\nFor proteomic analysis of total protein, rat cortical neurons were cultured in 60 mm dishes in high density (described above). After 14 days, cells were treated with 300 IU/mL IFNα for 20 min, 2 hr, 8 hr, 24 hr, or 48 hr. For comparison of the proteome, untreated cells were given sterile, distilled water (vehicle) equal to the volume of IFNα. After incubations, cells were washed once in RT phosphate buffered saline (PBS) and scraped into 500 microliters of PBS. Cell slurries were snap frozen in a dry ice ethanol bath and processed by the Emory University Proteomics Core.\nTo select proteins for further analysis, GO-Elite software was used. […] These lists of accession numbers were derived by identifying proteins for which the total peptide spectral match (PSM) was seven-fold (or more) lower in the IFNα treated sample than in the control sample. […] Thus, Arfl was selected for WB analysis."}},
  "data": [
    {"substance": "IFNα", "values": [
      {"measurement": "PSD-95 puncta", "setting": "rat neurons; 20 minutes", "value": "significantly decreased"},
      {"measurement": "PSD-95 puncta", "setting": "rat neurons; 2 hours", "value": "significantly decreased"},
      {"measurement": "neuronal surface expression of AMPARs", "setting": "AMPA receptor (AMPAR)", "value": "significantly decreased"},
      {"measurement": "effect on dendrites of rat neuronal cultures", "setting": "rat neuronal cultures", "value": "dendritic simplification"},
      {"measurement": "Arf1 level (Western blot)", "setting": "Arf1; 2 hours", "value": "decreases"},
      {"measurement": "Arf1 level (Western blot)", "setting": "Arf1; 4 hours", "value": "decreases"},
      {"measurement": "Arf1 level (Western blot)", "setting": "Arf1; 8 hours (data not shown)", "value": "decreased"},
      {"measurement": "Arf1 level (Western blot)", "setting": "Arf1; 24 hours (data not shown)", "value": "not consistently"}
    ]}
  ]
}
